Assay results from patent publication US11058738B2, “Herbal preparation for accelerating wounds and skin inflammations healing, especially for treatment of herpes and acne, and its application” (WYŻSZA SZKOŁA MEDYCZNA W BIAŁYMSTOKU, priority 2015, dated 2021).

How the values were obtained:
[1] = system: open wounds; experiment: Epithelialization and wound healing in mammals with open wounds; type: in vivo
Protocol: A following semi-solid preparation was prepared for the study which was obtained by mixing together: • 40% w/w Melittis melissophyllum L. from the whole plant, • 20% w/w of 96% ethyl alcohol, • 40% w/w Vaseline album—a hydrocarbon based substance used in lipophilic ointments.
The substance, etched by ethyl alcohol, is dissolved with help of heat in a smooth ointment medium for better dispersion ofbiologically active substances contained in the test extract. It could also be mixed in a cold lipophilic medium. It is important that the substance has been dissolved in the medium at the concentration below saturation.
In the study three groups of mammals with open wounds were involved:
I control group—no treatment was applied to the wound, even antiseptic one.
II group—a typical antiseptic agent was used, chlorhexidine, in accordance with a standard protocol regarding a treatment of an infected wound.
III group—the herbal preparation with a Melittis melissophyllum L. extract was used.
The herbal preparation applied in a treatment of open wounds. It was used in a similar way as described in Example I. The experiment confirmed that the herbal preparation based on Melittis melissophyllum L. definitely accelerates repair processes during the wound healing.

[2] = system: neutrophil white blood cells from the wound surface; experiment: Phagocytic activity of white blood cells (latex particles) from the healing wound surface; type: in vivo, mammals
Protocol: Phagocytic activity of white blood cells was assessed using phagocytic index (PI)—a percentage of phagocytes containing absorbed latex particles, and an amount of phagocytes (IF)—the average number of particles per phagocyte.
The established phagocytic activity of neutrophil white blood cells from the wound surface in different periods of the wound healing, i.e. an increase in phagocytic index and number of phagocytes due to presence of the Melittis melissophyllum L. extract, is shown in Table 2. It was found for the first time that the Melittis melissophyllum L. extract has a high therapeutic activity during a wound healing period in all stages of the wound healing, accelerating the wound repair process and cells proliferation, therefore ensuring the complete wound healing much earlier.

[H]/N=C(\N/C(=N/[H])NCCCCCCNC(=N)NC(=N)Nc1ccc(Cl)cc1)Nc1ccc(Cl)cc1 [Chlorhexidine, chlorhexidine]
complete epithelialization of the wound surface [1]: 12-th or 13-th
Beginning epitelialization ([1]; topical): 3.9 ± 0.4 24-hours
Beginning of rejection of the crust ([1]; topical): 7.6 ± 0.5 24-hours
Complete wound healing ([1]; topical): 11.25 ± 0.19 24-hours
Full crust rejection ([1]; topical): 10.5 ± 0.3 24-hours
IF (amount of phagocytes, average number of particles per 1 phagocyte) ([2]; 3 day after granulation): 10.0 ± 2.5
PI (phagocytic index, percentage of phagocytes containing latex particles) ([2]; 3 day after granulation): 61.60 ± 9.49%
IF (amount of phagocytes, average number of particles per 1 phagocyte) ([2]; 5 day after granulation): 14.0 ± 3.0
PI (phagocytic index, percentage of phagocytes containing latex particles) ([2]; 5 day after granulation): 59.01 ± 4.58%
IF (amount of phagocytes, average number of particles per 1 phagocyte) ([2]; 7 day after granulation): 11.0 ± 3.0
PI (phagocytic index, percentage of phagocytes containing latex particles) ([2]; 7 day after granulation): 48.20 ± 5.51%
